# From patent publication US5036008A, “Antitumor antibiotic BU-3285T” (Bristol-Myers Company, priority 1990, dated 1991)
# Like-named read-outs stand apart in the source and are kept apart here.
# Tests used:
# [1] = test system: B16-F10 (murine melanoma) cells; experiment: In vitro cytotoxicity (Table 14); assay type: cell-based; conditions: Mus musculus
# Experimental: (§4) B16-F10 (murine melanoma), HCT-116 (human colon carcinoma), A549 (human lung carcinoma) and A549/VP29 (an etoposide-resistant subline of A549) were grown in Eagle's MEM (Nissui) supplemented with FCS (fetal calf serum, 10%) and non-essential amino acids (B16-F10), or in McCoy's 5A medium (Gibco) with FCS (10%), essential and non-essential amino acids, vitamins and antibiotics (HCT-116 and both of A549) at 37° C. under a humidified atmosphere in a 5% CO2 incubator. Exponentially growing B16-F10, HCT-116 and A549 cells were harvested, counted and suspended in the culture medium at 1.5×10^4, 3×10^4 and 3×10^4 cells/ml, respectively. After planting 180 μl of cell suspension into wells of a 96-well microtiter plate on day 0, the test materials (20 μl) were added on day 1 and the plates were incubated for 72 hours. The cytotoxic activity was colorimetrically determined at 540 nm after staining viable cells with neutral red solution.
# [2] = test system: HCT-116 (human colon carcinoma) cells; experiment: In vitro cytotoxicity (Table 14); assay type: cell-based
# Experimental: as §4
# Piricularia oryzae D91 = experiment: microbe, parasite or virus in culture; assay type: cell-based; conditions: 40 h, pH 7
# Candida albicans IAM4888 = experiment: In vitro antifungal activity, serial agar dilution; conditions: IAM4888, 40 h, pH 7
# Experimental: (§5) In vitro antifungal activity was determined against various fungi by the serial agar dilution method. Sabouraud dextrose agar (pH 7.0) was used for the experiment. The inoculum size was adjusted to 10^6 CFU/ml. After incubation at 28° C. for 40 hours, the minimum inhibitory concentration (MIC) was examined.
# C. albicans A9540 = experiment: In vitro antifungal activity, serial agar dilution; conditions: Candida albicans, A9540, 40 h, pH 7
# Experimental: as §5
# [3] = test system: Blastomyces dermatidis D40; experiment: In vitro antifungal activity, serial agar dilution; conditions: D40, 40 h, pH 7
# Experimental: as §5
# A. flavus FA21436 = experiment: In vitro antifungal activity, serial agar dilution; conditions: Aspergillus flavus, FA21436, 40 h, pH 7
# Experimental: as §5
# Mucor spinosus IF05317 = experiment: In vitro antifungal activity, serial agar dilution; conditions: IF05317, 40 h, pH 7
# Experimental: as §5
# [4] = test system: Cryptococcus neoformans D49; experiment: In vitro antifungal activity, serial agar dilution; conditions: D49, 40 h, pH 7
# Experimental: as §5
# [5] = test system: Petriellidium boydii IF08078; experiment: In vitro antifungal activity, serial agar dilution; conditions: Scedosporium boydii, IF08078, 40 h, pH 7
# Experimental: as §5
# [6] = test system: Trichophyton mentagrophytes D155; experiment: In vitro antifungal activity, serial agar dilution; conditions: D155, 40 h, pH 7
# Experimental: as §5
# [7] = test system: Sporothrix schenckii IF08158; experiment: microbe, parasite or virus in culture; conditions: IF08158, 40 h, pH 7
# Experimental: as §5
# [8] = test system: Fusarium moniliforme A2284; experiment: In vitro antifungal activity, serial agar dilution; conditions: Fusarium verticillioides, A2284, 40 h, pH 7
# Experimental: as §5
# T. mentagrophytes #4329 = experiment: In vitro antifungal activity, serial agar dilution; conditions: Trichophyton mentagrophytes, 40 h, pH 7
# Experimental: as §5
# [9] = test system: Aspergillus fumigatus IAM2530; experiment: In vitro antifungal activity, serial agar dilution; conditions: IAM2530, 40 h, pH 7
# Experimental: as §5
# C. neoformans IAM4514 = experiment: In vitro antifungal activity, serial agar dilution; conditions: Cryptococcus neoformans, IAM4514, 40 h, pH 7
# Experimental: as §5
# A. fumigatus IAM2034 = experiment: microbe, parasite or virus in culture; conditions: Aspergillus fumigatus, IAM2034, 40 h, pH 7
# Experimental: as §5
# Solubility = assay type: physicochemical
# [10] = test system: A549 (human lung carcinoma) cells; experiment: In vitro cytotoxicity (Table 14); assay type: cell-based
# Experimental: as §4
# [11] = test system: DNA biosynthesis in L1210 leukemia cells; experiment: Inhibition of macromolecule biosynthesis, DNA (Table 15); assay type: cell-based, murine
# Experimental: (§1) Inhibitory effects of the above compounds on macromolecule (DNA, RNA and protein) biosynthesis were determined in cultured L1210 murine leukemia cells. The cells (5×10^5 cells/ml) were incubated with the test materials at 37° C. for 15 minutes and then further incubated for 60 minutes after the addition of labeled precursor, ^3 H-thymidine, ^14 C-uridine or ^3 H-leucine into the cultured mixture. After washing with chilled 5% trichloroacetic acid solution, the radioactivity incorporated into the acid-insoluble fraction of the cells was determined with a liquid scintillation counter.
# [12] = test system: RNA biosynthesis in L1210 leukemia cells; experiment: Inhibition of macromolecule biosynthesis, RNA (Table 15); assay type: cell-based, murine; conditions: Mus musculus, labeled precursor, 15 min + 60 min, 37° C., read-out: IC50, RNA synthesis
# Experimental: as §1
# [13] = test system: murine and human tumor cell lines; experiment: In vitro cytotoxicity, overall statement; conditions: murine and human tumor cell lines
# Experimental: (§6) After planting 180 μl of cell suspension into wells of a 96-well microtiter plate on day 0, the test materials (20 μl) were added on day 1 and the plates were incubated for 72 hours. The cytotoxic activity was colorimetrically determined at 540 nm after staining viable cells with neutral red solution.
# fungi [14] = experiment: In vitro antifungal activity, overall statement; conditions: various fungi
# Experimental: as §5
# [15] = test system: A549/VP29 (etoposide-resistant subline of A549) cells; experiment: In vitro cytotoxicity (Table 14); conditions: for IC50: A549/VP29, 72 hours, neutral red
# Experimental: as §6
# P388 leukemia = experiment: In vivo antitumor activity against P388 leukemia (Table 8); conditions: for MST (median survival time) / T/C: Q1D × 3
# [16] = test system: protein biosynthesis in L1210 leukemia cells; experiment: Inhibition of macromolecule biosynthesis, protein (Table 15); assay type: cell-based, murine; conditions: Mus musculus, labeled precursor, 15 min + 60 min, 37° C., read-out: IC50, protein synthesis
# Experimental: as §1
# [17] = test system: B16-F10 (murine melanoma) cells; experiment: In vitro cytotoxicity (Table 6); assay type: cell-based; conditions: Mus musculus; B16-F10, 72 hrs, neutral red
# Experimental: (§2) BU-3285T was tested for in vitro cytotoxicity against several murine and human tumor cell lines and for in vivo antitumor activity in mice. Mitomycin C was used as a reference compound in both in vitro and in vivo experiments. B16-F10 (murine melanoma) and Moser (human colorectal carcinoma) cells were grown to the logarithmic phase in an enriched Eagle minimum essential medium supplemented with fetal calf serum (FCS, 10%) and kanamycin (60 μg/ml); HCT-116 (human colon carcinoma) cells were in McCoy's 5A medium supplemented with FCS (10%), penicillin (100 U/ml) and streptomycin (100 μg/ml); and P388 (murine lymphocytic leukemia) cells and its vincristine-resistant subline (P388/VCR) were in RPMI 1640 medium supplemented with FCS (10%), penicillin (100 U/ml) and streptomycin (100 μg/ml).
# (§3) B16-F10, Moser, HCT-116 and P388 cells were harvested and implanted into wells of a 96-well (for B16-F10, Moser and HCT-116 cells) or a 24-well (for P388 cells) tissue culture plate with test materials at the inoculum sizes of 3×10^4, 6 ×10^4, 6×10^4 and 2×10^4 cells/ml, respectively. They were incubated at 37° C. in a humidified atmosphere of 5% CO2 and 95% air for 72 hrs. […] For P388 cells, the number of viable cells was determined by a Coulter counter.
# [18] = test system: HCT-116 (human colon carcinoma) cells; experiment: In vitro cytotoxicity (Table 6); assay type: cell-based; conditions: HCT-116, 72 hrs, neutral red
# Experimental: as §2, §3
# [19] = test system: protein biosynthesis in L1210 leukemia cells; experiment: Inhibition of macromolecule biosynthesis, protein (Table 7); assay type: cell-based, murine; conditions: Mus musculus, L1210; labelled precursor; 15 min + 60 min, 37° C.; read-out: IC50, protein synthesis
# Experimental: as §1, with “of BU-3285T” for “of the above compounds”, “macromolecule biosynthesis” for “macromolecule”, “protein)” for “protein) biosynthesis”, “the compound” for “the test materials”, “of labelled” for “of labeled”, “determined by” for “determined with”
# [20] = test system: RNA biosynthesis in L1210 leukemia cells; experiment: Inhibition of macromolecule biosynthesis, RNA (Table 7); assay type: cell-based, murine; conditions: Mus musculus, labelled precursor, 15 min + 60 min, 37° C., read-out: IC50, RNA synthesis
# Experimental: as §1, with “of BU-3285T” for “of the above compounds”, “macromolecule biosynthesis” for “macromolecule”, “protein)” for “protein) biosynthesis”, “the compound” for “the test materials”, “of labelled” for “of labeled”, “determined by” for “determined with”
# [21] = test system: Moser (human colorectal carcinoma) cells; experiment: In vitro cytotoxicity (Table 6); conditions: Homo sapiens, 72 h
# Experimental: as §2, §3
# L1210 leukemia = experiment: In vivo antitumor activity against L1210 leukemia (Table 9); conditions: Q1D × 3
# [22] = test system: DNA biosynthesis in L1210 leukemia cells; experiment: Inhibition of macromolecule biosynthesis, DNA (Table 7); assay type: cell-based, murine; conditions: Mus musculus, L1210; 3H-thymidine, ^14 C-uridine or 3H-leucine precursor; 15 min + 60 min, 37° C.; read-out: IC50, DNA synthesis
# Experimental: as §1, with “of BU-3285T” for “of the above compounds”, “macromolecule biosynthesis” for “macromolecule”, “protein)” for “protein) biosynthesis”, “the compound” for “the test materials”, “of labelled” for “of labeled”, “determined by” for “determined with”
# B16 melanoma = conditions: reported; cited from earlier work
# fungi [23] = conditions: reported; cited from earlier work
# [24] = 0.1 mg/kg/day ip, significant if T/C ≥ 125%
# [25] = 0.3 mg/kg/day ip, *2 significant, T/C ≥ 125%
# [26] = 1 mg/kg/day ip, *2 significant, T/C ≥ 125%
# [27] = 3 mg/kg/day ip, *2 significant, T/C ≥ 125%
smiles,measurement,setting,value
"COc1cccc2c1C(=O)c1c(O)c3c(c(O)c1C2=O)C[C@@](O)(C(=O)CO)C[C@@H]3O[C@H]1C[C@H](N)[C@H](O)[C@H](C)O1 [Adriamycin, reference compound]",IC50,"[1]; B16-F10, 72 h",0.03 µg/mL
same,IC50,"[2]; HCT-116, 72 h",0.3 µg/mL
C[C@@H]1[C@H](O)[C@@H](C)/C=C/C=C/C=C/C=C/C=C/C=C/C=C/[C@H](O[C@@H]2O[C@H](C)[C@@H](O)[C@H](N)[C@@H]2O)C[C@@H]2O[C@](O)(C[C@@H](O)C[C@@H](O)[C@H](O)CC[C@@H](O)C[C@@H](O)CC(=O)O[C@H]1C)C[C@H](O)[C@H]2C(=O)O [Amphotericin B],MIC,Piricularia oryzae D91,12.5 µg/mL
same,MIC,Candida albicans IAM4888,1.6 µg/mL
same,MIC,C. albicans A9540,1.6 µg/mL
same,MIC,[3],12.5 µg/mL
same,MIC,A. flavus FA21436,1.6 µg/mL
same,MIC,Mucor spinosus IF05317,6.3 µg/mL
same,MIC,[4],0.8 µg/mL
same,MIC,[5],> 100 µg/mL
same,MIC,[6],6.3 µg/mL
same,MIC,[7],> 100 µg/mL
same,MIC,[8],3.1 µg/mL
same,MIC,T. mentagrophytes #4329,6.3 µg/mL
same,MIC,[9],3.1 µg/mL
same,MIC,C. neoformans IAM4514,0.8 µg/mL
same,MIC,A. fumigatus IAM2034,3.1 µg/mL
CCCCC/C=C/C=C\C=C/C(O)C(C)C(O)C/C=C/C1OC(=O)C=CC1O (stereo not shown) [BU-3285T desulfate],IC50,"[1]; B16-F10, 72 hours, neutral red, read-out: IC50",14 µg/mL
same,solubility in acetone,Solubility; acetone,soluble
same,solubility in carbon tetrachloride,Solubility; carbon tetrachloride,insoluble
same,solubility in dimethyl sulfoxide,Solubility; dimethyl sulfoxide,soluble
same,solubility in ethanol,Solubility; ethanol,soluble
same,solubility in methanol,Solubility; methanol,soluble
same,solubility in n-hexane,Solubility; n-hexane,insoluble
same,solubility in water,Solubility; water,slightly soluble
same,IC50,"[10]; A549, 72 hours, neutral red, read-out: IC50",13 µg/mL
same,IC50,"[2]; HCT-116, 72 hours, neutral red, read-out: IC50",5.5 µg/mL
same,IC50,"[11]; Mus musculus, L1210, labeled precursor, 15 min + 60 min, 37° C., read-out: IC50, DNA synthesis",> 100 µg/mL
same,inhibitory effect on DNA synthesis,"[11]; at 100 μg/ml, the highest concentration tested",no significant inhibitory effect
same,IC50,[12],6.1 µg/mL
same,cytotoxicity in vitro,[13],quite active
same,antifungal activity in vitro,fungi [14],no activity against fungi in vitro
same,IC50,[15],15 µg/mL
same,cytotoxicity against resistant A549/VP29 compared with parent cell line,[15]; vs A549 parent,almost the same cytotoxicity
same,in vivo antitumor activity,P388 leukemia; P388 leukemia in mice,not active
same,IC50,[16],8.1 µg/mL
CC(=O)N1CCN(c2ccc(OCC3COC(Cn4ccnc4)(c4ccc(Cl)cc4Cl)O3)cc2)CC1 (stereo not shown) [Ketoconazole],MIC,Piricularia oryzae D91,3.1 µg/mL
same,MIC,Candida albicans IAM4888,50 µg/mL
same,MIC,C. albicans A9540,50 µg/mL
same,MIC,[3],0.4 µg/mL
same,MIC,A. flavus FA21436,0.4 µg/mL
same,MIC,Mucor spinosus IF05317,100 µg/mL
same,MIC,[4],0.4 µg/mL
same,MIC,[5],1.6 µg/mL
same,MIC,[6],1.6 µg/mL
same,MIC,[7],6.3 µg/mL
same,MIC,[8],6.3 µg/mL
same,MIC,T. mentagrophytes #4329,1.6 µg/mL
same,MIC,[9],3.1 µg/mL
same,MIC,C. neoformans IAM4514,0.4 µg/mL
same,MIC,A. fumigatus IAM2034,6.3 µg/mL
"CO[C@@]12[C@H](COC(N)=O)C3=C(C(=O)C(C)=C(N)C3=O)N1C[C@@H]1N[C@@H]12 [Mitomycin C, reference compound]",IC50,[17],0.5 µg/mL
same,IC50,[18],0.8 µg/mL
same,IC50,[19],> 100 µg/mL
same,IC50,[20],> 100 µg/mL
same,IC50,[21],1.2 µg/mL
same,MST (median survival time),L1210 leukemia; 0.1 mg/kg/day ip,8.5 days
same,T/C,L1210 leukemia; [24],121%
same,MST (median survival time),L1210 leukemia; 0.3 mg/kg/day ip,10.0 days
same,T/C,L1210 leukemia; [25],143%
same,MST (median survival time),L1210 leukemia; 1 mg/kg/day ip,9.5 days
same,T/C,L1210 leukemia; [26],136%
same,MST (median survival time),L1210 leukemia; 3 mg/kg/day ip,13.0 days
same,T/C,L1210 leukemia; [27],186%
same,MST (median survival time),P388 leukemia; 0.1 mg/kg/day ip,11.5 days
same,T/C,P388 leukemia; [24],115%
same,MST (median survival time),P388 leukemia; 0.3 mg/kg/day ip,14.0 days
same,T/C,P388 leukemia; [25],140%
same,MST (median survival time),P388 leukemia; 1 mg/kg/day ip,13.5 days
same,T/C,P388 leukemia; [26],135%
same,MST (median survival time),P388 leukemia; 3 mg/kg/day ip,20.0 days
same,T/C,P388 leukemia; [27],200%
same,IC50,[22],1.7 µg/mL
"COc1cc([C@@H]2c3cc4c(cc3[C@@H](O[C@@H]3O[C@@H]5CO[C@@H](C)O[C@H]5[C@H](O)[C@H]3O)[C@H]3COC(=O)[C@H]23)OCO4)cc(OC)c1O [VP16, reference compound]",IC50,"[1]; B16-F10, 72 h",0.21 µg/mL
same,IC50,"[10]; A549, 72 h",1.2 µg/mL
same,IC50,"[2]; HCT-116, 72 h",5.3 µg/mL
same,IC50,[15],40 µg/mL
C[C@@](O)(/C=C/[C@H]1CC=CC(=O)O1)[C@@H](C[C@@H](O)\C=C/C=C\C=C\CO)OP(=O)(O)O [fostriecin],antitumor effect against B16 melanoma,B16 melanoma,no antitumor effect against B16 melanoma
same,antifungal activity,fungi [23],no antifungal activity
